No end group written: not given here.
How the values were obtained:
[1] = test system: murine calvaria; experiment: Calvarial bone resorption assay; type: cell-based, mouse; details: for osteolytic activity of peptides in the calvarial assay: graded concentrations, three separate experiments
[2] = test system: MG63 cells
[3] = test system: human osteoblast-like cell line MG63; experiment: Osteoblast proliferation; type: cell-based; details: subconfluent MG63, 24 h, DMEM 2% FCS, [3H]thymidine last 6 h

Molecule: 51–99: synthetic Mt cpn10 peptide, residues 51–99 (WDEDGEKRIPLDVAEGDTVIYSKYGGTEIKYNGEEYLILSARDVLAVVS; UniProt P9WPE5 51-99, looked up, fragment)
- osteolytic activity of peptides in the calvarial assay [1]: inactive

Molecule: polymyxin B [reference compound]
- effect of addition on bone resorbing activity of r-Mt cpn10 [1]: no effect
- effect of addition on bone resorbing activity of the Mt sonicate [1]: no effect
- effect on osteolytic activity of peptides 26–99 and 65–99 [1]: no inhibitory effects

Molecule: 65–99: synthetic Mt cpn10 peptide, residues 65–99 (EGDTVIYSKYGGTEIKYNGEEYLILSARDVLAVVS; UniProt P9WPE5 65-99, looked up, fragment)
- osteolytic activity of peptides in the calvarial assay [1]: reproducible osteolytic activity

Molecule: 46–99: synthetic Mt cpn10 peptide, residues 46–99 (VGPGRWDEDGEKRIPLDVAEGDTVIYSKYGGTEIKYNGEEYLILSARDVLAVVS; UniProt P9WPE5 46-99, looked up, fragment)
- osteolytic activity of peptides in the calvarial assay [1]: inactive

Molecule: 1–58: synthetic Mt cpn10 peptide, residues 1–58 (MAKVNIKPLEDKILVQANEAETTTASGLVIPDTAKEKPQEGTVVAVGPGRWDEDGEKR; also: dimer; UniProt P9WPE5 1-58, looked up, fragment)
- osteolytic activity of peptides in the calvarial assay [1]: inactive

Molecule: 59–99: synthetic Mt cpn10 peptide, residues 59–99 (IPLDVAEGDTVIYSKYGGTEIKYNGEEYLILSARDVLAVVS; UniProt P9WPE5 59-99, looked up, fragment)
- osteolytic activity of peptides in the calvarial assay [1]: inactive

Molecule: calcitonin (CGNLSTCMLGTYTQDFNKFHTFPQTAIGVGAP; ends and bridges not checked; cysteine pairing not given here; UniProt P01258 85-116, looked up) [reference compound]
- effect on r-Mt cpn10-induced bone resorption ([1]; calcitonin at 10 ng/ml, results not shown): blocked

Molecule: lipoarabinomannan [Mt LAM, reference compound]
- osteolytic activity ([1]; added at a concentration of 1 μg/ml): no osteolytic activity

Molecule: GGIVLTGSAAA [GroES residues 23–33]
- osteolytic activity of peptides in the calvarial assay [1]: osteolytic activity

Molecule: 54–99: synthetic Mt cpn10 peptide, residues 54–99 (DGEKRIPLDVAEGDTVIYSKYGGTEIKYNGEEYLILSARDVLAVVS; UniProt P9WPE5 54-99, looked up, fragment)
- osteolytic activity of peptides in the calvarial assay [1]: inactive

Molecule: TTTASGLVIPDTAKE [21–35]
- osteolytic activity of peptides in the calvarial assay [1]: osteolytic activity

B1: r-Mt cpn10: recombinant Mycobacterium tuberculosis chaperonin 10 expressed in Escherichia coli, purified by reversed-phase HPLC to >97% purity (protein, UniProt P9WPE5 2-100, looked up)
Co-chaperonin GroES: AKVNIKPLEDKILVQANEAETTTASGLVIPDTAKEKPQEGTVVAVGPGRWDEDGEKRIPLDVAEGDTVIYSKYGGTEIKYNGEEYLILSARDVLAVVSK
modifications: recombinant, expressed in E. coli
- concentration at which osteolytic activity (calcium release) was noted [1]: 1 ng/mL
- concentration at which osteolytic activity was noted, molar equivalent [1]: 100 pmol
- stimulation of bone resorption, measured as calcium release into the tissue culture medium [1]: dose-dependent stimulation of calcium release
- cytotoxicity (lactate dehydrogenase release) [2]: not due to cytotoxicity
- concentrations causing significant inhibition of cell proliferation [3]: ≥ 1 nM

— publication PMC2199082 (The Journal of Experimental Medicine, 1997)
